# Reference: patent publication US8846947B2, “Benzimidazoles and related analogs as sirtuin modulators” (GlaxoSmithKline LLC, priority 2008, dated 2014)
# Read-outs that look alike come from different tables or passages of the source.
# Molecular target: T1, SIRT1 (Homo sapiens, UniProt Q96EB6)
# T1 sequence (Q96EB6 1-747): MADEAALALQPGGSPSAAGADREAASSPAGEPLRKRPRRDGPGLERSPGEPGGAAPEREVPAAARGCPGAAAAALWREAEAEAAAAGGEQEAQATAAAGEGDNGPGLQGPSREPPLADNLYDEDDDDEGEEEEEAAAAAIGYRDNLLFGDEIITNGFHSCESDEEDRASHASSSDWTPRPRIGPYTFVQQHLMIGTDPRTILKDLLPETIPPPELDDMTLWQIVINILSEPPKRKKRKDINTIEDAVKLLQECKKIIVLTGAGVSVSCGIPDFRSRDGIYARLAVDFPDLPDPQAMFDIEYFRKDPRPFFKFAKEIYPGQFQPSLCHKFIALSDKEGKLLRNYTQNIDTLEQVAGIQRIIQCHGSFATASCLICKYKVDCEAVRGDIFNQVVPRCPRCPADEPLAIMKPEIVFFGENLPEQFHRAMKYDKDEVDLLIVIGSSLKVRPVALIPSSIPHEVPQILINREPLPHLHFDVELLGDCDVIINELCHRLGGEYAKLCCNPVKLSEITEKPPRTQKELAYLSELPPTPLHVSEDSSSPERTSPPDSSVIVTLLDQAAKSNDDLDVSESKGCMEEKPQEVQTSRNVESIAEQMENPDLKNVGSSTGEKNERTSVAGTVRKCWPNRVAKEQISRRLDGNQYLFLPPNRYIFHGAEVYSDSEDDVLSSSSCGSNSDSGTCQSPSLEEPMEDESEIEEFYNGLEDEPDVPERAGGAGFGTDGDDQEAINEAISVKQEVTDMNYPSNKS
# Assay: Mass spectrometry based SIRT1 deacetylase activation assay (acetylated p53-derived peptide substrate)
# Type: biochemical
# [1] = 0.5 μM peptide substrate, 120 μM βNAD+, 10 nM SIRT1, 25 minutes at 25° C.
# [2] = 0.5 μM peptide substrate, 120 μM βNAD+, 10 nM SIRT1, 25 min at 25° C.
# [3] = 0.5 μM peptide substrate, 120 μM βNAD+, 10 nM SIRT1, 25 min at 25° C., read-out: EC1.5
smiles,measurement,setting,value
"O=C(Nc1cccc[n+]1[O-])c1cccc2[nH]c(-c3ccccc3C(F)(F)F)nc12 [Compound 329, 2-(2-(2-(trifluoromethyl)phenyl)-1H-benzo[d]imidazole-4-carboxamido)pyridine 1-oxide]",EC1.5,,B (EC1.5 1-25 uM)
same,Fold Act. (percent maximum fold activation),,A (Fold activation >200%)
Cc1ncccc1-c1nc2c(C(=O)Nc3nc(CN4CCOCC4)cs3)cccc2[nH]1 [Compound 842],EC1.5,[1],A (EC1.5<1.0 uM)
same,Fold Act. (percent maximum fold activation),[1],A (Fold activation >200%)
CC(C)(C)c1nnc(NC(=O)c2cccc3[nH]c(-c4cccc(C(F)(F)F)c4)nc23)s1 [Compound 240],EC1.5,,C (EC1.5 >25 uM)
same,Fold Act. (percent maximum fold activation),,B (Fold Activation <200%)
O=C(NC1CCOC1=O)c1cccc2[nH]c(-c3ccccc3C(F)(F)F)nc12 (stereo not shown) [Compound 353],EC1.5,,C (EC1.5 >25 uM)
same,Fold Act. (percent maximum fold activation),,B (Fold Activation <200%)
C[C@@H]1CN(c2ccc(-c3nc4c(C(=O)Nc5cccnc5)cccc4[nH]3)c(C(F)(F)F)c2)C[C@H](C)O1 [Compound 604],EC1.5,[1],A (EC1.5<1.0 uM)
same,Fold Act. (percent maximum fold activation),[1],A (Fold activation >200%)
O=C(Nc1nccs1)c1cncc2nc(-c3ccc(OC[C@@H](O)CO)cc3C(F)F)[nH]c12 [Compound 771],EC1.5,[1],A (EC1.5<1.0 uM)
same,Fold Act. (percent maximum fold activation),[1],A (Fold activation >200%)
O=C(Nc1nccs1)c1cccc2[nH]c(-c3ccc(-c4ccccc4)cc3)nc12 [Compound 223],EC1.5,,C (EC1.5 >25 uM)
same,Fold Act. (percent maximum fold activation),,B (Fold Activation <200%)
CS(=O)(=O)c1cccc(-c2nc3c(C(=O)Nc4ccccn4)cccc3[nH]2)c1 [Compound 403],Fold Act. (percent maximum fold activation),[2],A (Fold activation >200%)
same,EC1.5,[3],1000 to 25000 nM
Cc1nc(-c2ccccc2)c(-c2nc3c(C(=O)Nc4ccccn4)cccc3[nH]2)s1 [Compound 369],EC1.5,,A (EC1.5<1.0 uM)
same,Fold Act. (percent maximum fold activation),,A (Fold activation >200%)
O=C(Nc1nccs1)c1cccc2[nH]c(-c3ccnc(N4CCCC4)c3)nc12 [Compound 446],Fold Act. (percent maximum fold activation),[2],B (Fold Activation <200%)
same,EC1.5,[3],< 1000 nM
Cc1cc(NC(=O)c2cccc3[nH]c(-c4cnc5c(c4)OCCN5C)nc23)n(C)n1 [Compound 523],Fold Act. (percent maximum fold activation),[2],B (Fold Activation <200%)
same,EC1.5,[3],> 25000 nM
O=C(Nc1cccc(CN2CCOCC2)n1)c1cccc2[nH]c(-c3ccc(F)cc3C(F)F)nc12 [Compound 818],EC1.5,[1],A (EC1.5<1.0 uM)
same,Fold Act. (percent maximum fold activation),[1],A (Fold activation >200%)
"COc1cc(C(=O)Nc2ccccn2)c2nc(-c3ccccc3C(F)(F)F)[nH]c2c1 [Compound 632, 6-methoxy-N-(pyridin-2-yl)-2-(2-(trifluoromethyl)phenyl)-1H-benzo[d]imidazole-4-carboxamide]",EC1.5,[1],A (EC1.5<1.0 uM)
same,Fold Act. (percent maximum fold activation),[1],A (Fold activation >200%)
O=C(Nc1nccs1)c1cccc2[nH]c(-c3ccc(OC[C@H](O)CO)cc3C(F)(F)F)nc12 [Compound 742],EC1.5,[1],A (EC1.5<1.0 uM)
same,Fold Act. (percent maximum fold activation),[1],A (Fold activation >200%)
O=C(Nc1nccs1)c1cc(N2CCOCC2)cc2[nH]c(-c3ccccc3C(F)F)nc12 [Compound 734],EC1.5,[1],A (EC1.5<1.0 uM)
same,Fold Act. (percent maximum fold activation),[1],A (Fold activation >200%)
"O=C(Nc1nccs1)c1cccc2[nH]c(-c3ccc(CN4CCCC4)cc3C(F)(F)F)nc12 [Compound 828, 2-(4-(pyrrolidin-1-ylmethyl)-2-(trifluoromethyl)phenyl)-N-(thiazol-2-yl)-1H-benzo[d]imidazole-4-carboxamide]",EC1.5,[1],A (EC1.5<1.0 uM)
same,Fold Act. (percent maximum fold activation),[1],A (Fold activation >200%)
O=C(Nc1cccnc1)c1cccc2[nH]c(-c3ccc(OCCN4CCOCC4)cc3C(F)F)nc12 [Compound 724],EC1.5,[1],A (EC1.5<1.0 uM)
same,Fold Act. (percent maximum fold activation),[1],A (Fold activation >200%)
"C[C@@H]1CN(c2cccc(-c3nc4c(C(=O)Nc5nccs5)cccc4[nH]3)c2)C[C@H](C)O1 [Compound 576, 2-(3-(2,6-dimethylmorpholino)phenyl)-N-(thiazol-2-yl)-1H-benzo[d]imidazole-4-carboxamide]",Fold Act. (percent maximum fold activation),[2],A (Fold activation >200%)
same,EC1.5,[3],< 1000 nM
Cc1nc(NC(=O)c2cccc3[nH]c(-c4ccnn4-c4ccccc4)nc23)sc1C [Compound 395],EC1.5,,A (EC1.5<1.0 uM)
same,Fold Act. (percent maximum fold activation),,A (Fold activation >200%)
Cc1cc(C)nc(NC(=O)c2cccc3[nH]c(-c4cccc(C(F)(F)F)c4)nc23)c1 [Compound 279],EC1.5,,A (EC1.5<1.0 uM)
same,Fold Act. (percent maximum fold activation),,A (Fold activation >200%)
"O=C(Nc1nccs1)c1cccc2[nH]c(-c3ccc(N4CCOCC4)cc3C(F)F)nc12 [Compound 551, 2-(2-(difluoromethyl)-4-morpholinophenyl)-N-(thiazol-2-yl)-1H-benzo[d]imidazole-4-carboxamide]",Fold Act. (percent maximum fold activation),[2],A (Fold activation >200%)
same,EC1.5,[3],< 1000 nM
Cc1cc(NC(=O)c2cccc3[nH]c(-c4ccccc4OCCN4CCOCC4)nc23)n(C)n1 [Compound 487],Fold Act. (percent maximum fold activation),[2],A (Fold activation >200%)
same,EC1.5,[3],1000 to 25000 nM
"O=C(Nc1cccc(OC[C@@H](O)CO)c1)c1cccc2[nH]c(-c3ccccc3C(F)(F)F)nc12 [Compound 725, (S)-N-(3-(2,3-dihydroxypropoxy)phenyl)-2-(2-(trifluoromethyl)phenyl)-1H-benzo[d]imidazole-4-carboxamide]",EC1.5,[1],A (EC1.5<1.0 uM)
same,Fold Act. (percent maximum fold activation),[1],A (Fold activation >200%)
O=C(Nc1ccc(CN2CCOCC2)cn1)c1cccc2[nH]c(-c3ccccc3C(F)(F)F)nc12 [Compound 673],EC1.5,[1],A (EC1.5<1.0 uM)
same,Fold Act. (percent maximum fold activation),[1],A (Fold activation >200%)
O=C(Nc1ccncc1)c1cccc2[nH]c(-c3cccc(N4CCOCC4)c3)nc12 [Compound 287],EC1.5,,A (EC1.5<1.0 uM)
same,Fold Act. (percent maximum fold activation),,A (Fold activation >200%)
O=C(Nc1cccc(OC2CCNC2)c1)c1cccc2[nH]c(-c3ccc(Cl)cc3C(F)(F)F)nc12 (stereo not shown) [Compound 599],EC1.5,[1],A (EC1.5<1.0 uM)
same,Fold Act. (percent maximum fold activation),[1],A (Fold activation >200%)
O=C(Nc1cccnn1)c1cccc2[nH]c(-c3ccccc3OCCN3CCOCC3)nc12 [Compound 488],Fold Act. (percent maximum fold activation),[2],B (Fold Activation <200%)
same,EC1.5,[3],1000 to 25000 nM
O=C(Nc1cccc(CN2CCOCC2)n1)c1cccc2[nH]c(-c3cccnc3)nc12 [Compound 850],EC1.5,[1],A (EC1.5<1.0 uM)
same,Fold Act. (percent maximum fold activation),[1],A (Fold activation >200%)
O=C(Nc1cccnn1)c1cc(N2CCOCC2)cc2[nH]c(-c3cc(F)ccc3C(F)(F)F)nc12 [Compound 647],EC1.5,[1],A (EC1.5<1.0 uM)
same,Fold Act. (percent maximum fold activation),[1],A (Fold activation >200%)
O=C(Nc1ccccn1)c1cncc2[nH]c(-c3ccc(OC[C@@H](O)CO)cc3C(F)F)nc12 [Compound 773],EC1.5,[1],A (EC1.5<1.0 uM)
same,Fold Act. (percent maximum fold activation),[1],A (Fold activation >200%)
CCCN1CCc2cc(-c3nc4c(C(=O)Nc5cccnc5)cccc4[nH]3)ccc21 [Compound 569],Fold Act. (percent maximum fold activation),[2],A (Fold activation >200%)
same,EC1.5,[3],1000 to 25000 nM
O=C(Nc1cccc(OC[C@H](O)CO)c1)c1cccc2[nH]c(-c3ccccc3C(F)F)nc12 [Compound 721],EC1.5,[1],A (EC1.5<1.0 uM)
same,Fold Act. (percent maximum fold activation),[1],A (Fold activation >200%)
CCOC(=O)c1csc(NC(=O)c2cccc3[nH]c(-c4cccc(C(F)(F)F)c4)nc23)n1 [Compound 308],EC1.5,,B (EC1.5 1-25 uM)
same,Fold Act. (percent maximum fold activation),,A (Fold activation >200%)
O=C(Nc1cccnn1)c1cc(N2CCOCC2)cc2[nH]c(-c3ccccc3C(F)F)nc12 [Compound 737],EC1.5,[1],A (EC1.5<1.0 uM)
same,Fold Act. (percent maximum fold activation),[1],A (Fold activation >200%)
CC(C)(C)c1cccc(-c2nc3c(C(=O)Nc4nccs4)cccc3[nH]2)c1OCCN1CCOCC1 [Compound 587],Fold Act. (percent maximum fold activation),[2],B (Fold Activation <200%)
same,EC1.5,[3],1000 to 25000 nM
O=C1COc2ccc(-c3nc4c(C(=O)Nc5ccccn5)cccc4[nH]3)cc2N1 [Compound 565],Fold Act. (percent maximum fold activation),[2],B (Fold Activation <200%)
same,EC1.5,[3],1000 to 25000 nM
Cc1nc(C)c(-c2nc3c(C(=O)Nc4ccc(OC[C@@H](O)CO)cc4)cccc3[nH]2)s1 [Compound 789],EC1.5,[1],A (EC1.5<1.0 uM)
same,Fold Act. (percent maximum fold activation),[1],A (Fold activation >200%)
"O=C(Nc1nccs1)c1cccc2[nH]c(-c3ccccc3OC3CCNCC3)nc12 [Compound 428, 2-(2-(piperidin-4-yloxy)phenyl)-N-(thiazol-2-yl)-1H-benzo[d]imidazole-4-carboxamide]",Fold Act. (percent maximum fold activation),[2],A (Fold activation >200%)
same,EC1.5,[3],< 1000 nM
